Laboratory results reported in publication PMC11489133, “Obicetrapib exhibits favorable physiochemical and pharmacokinetic properties compared to previous cholesteryl ester transfer protein inhibitors: An integrated summary of results from non‐human primate studies and clinical trials” (Pharmacology Research & Perspectives, 2024).
Where two headings read alike, the source gives them in different places.

Legend:
[1] = design: method as in PMID 24628035; details: cited from earlier work; for t ½ (terminal half‐life) / AUC (0–24 h) / C max / t max: fasting; for t ½ (terminal half‐life): arithmetic mean (CV%); for AUC (0–24 h) / C max: geometric mean (CV%); for C max: healthy White males
[2] = TULIP Phase II trial, plasma concentrations of obicetrapib; assay type: in vivo, humans; details: any of the participants

For `CCOC(=O)N1c2ccc(C(F)(F)F)cc2C(N(Cc2cc(C(F)(F)F)cc(C(F)(F)F)c2)c2ncc(OCCCC(=O)O)cn2)CC1CC` (stereo not shown) [Obicetrapib], which “effect of food on the AUC or C max” value ([1]; 50 mg dose, fed versus fasted, n = 5 White healthy males) is on record?
The value was “did not have a clinically relevant effect”.

What about the “effects of food, age, gender, or ethnicity on the PK parameters” value ([1]; PK assessment results of the other groups) of the same molecule?
Its value is “no clinically relevant effects”.

What about the “t ½ (terminal half‐life)” value ([1]; single dose 5 mg) of the same molecule?
The value was 125 (22%) h.

What about the “AUC (0–24 h)” value ([1]; single dose 5 mg) of the same molecule?
The value was 1816 (34%) ng·h/mL.

What about the C max ([1]; single dose 5 mg) of the same molecule?
Its C max is 138 (33%) ng/mL.

What about the t max ([1]; single dose 5 mg, median (minimum, maximum)) of the same molecule?
The t max was 3 (2, 3) h.

And the t max ([1]; single dose 5 mg, median (minimum, maximum), listed as obicetrapib)?
The t max was at most 3 h.

What about the “t ½ (terminal half‐life)” value ([1]; single dose 10 mg) of the same molecule?
Its value is 124 (20%) h.

And the “AUC (0–24 h)” value ([1]; single dose 10 mg)?
Its value is 3580 (21%) ng·h/mL.

And the C max ([1]; single dose 10 mg)?
Its C max is 251 (23%) ng/mL.

And the t max ([1]; single dose 10 mg, median (minimum, maximum))?
The t max was 3 (2, 5) h.

And the t max ([1]; single dose 10 mg, median (minimum, maximum), listed as obicetrapib)?
Its t max is at most 3 h.

And the “t ½ (terminal half‐life)” value ([1]; single dose 25 mg)?
Its value is 162 (19%) h.

And the “AUC (0–24 h)” value ([1]; single dose 25 mg)?
Its value is 5952 (26%) ng·h/mL.

And the C max ([1]; single dose 25 mg)?
Its C max is 467 (30%) ng/mL.

What about the t max ([1]; single dose 25 mg, median (minimum, maximum)) of the same molecule?
Its t max is 3.5 (2, 6) h.

And the t max ([1]; single doses 50–150 mg)?
The t max was 4 h.

And the obicetrapib in urine ([1]; single doses, any participant)?
The obicetrapib in urine was “not detected”.

What about the obicetrapib in urine [2] of the same molecule?
The obicetrapib in urine was “not detected”.
